# Numbered stars: 1 amine (or outer) side, 2 acyl side, 3 side chain; on linkers, the order of the positions; unused ones are H or OH. Square brackets hold non-standard residues; d marks the D form. Peptide text beside a SMILES is read from it. * marks the point of attachment. Phe(3,4-Cl2) = N[C@@H](Cc1ccc(Cl)c(Cl)c1)C(=O)O; Phe(3-CF3) = N[C@@H](Cc1cccc(C(F)(F)F)c1)C(=O)O; Phe(3-Cl) = N[C@@H](Cc1cccc(Cl)c1)C(=O)O; Phe(4-Br) = N[C@@H](Cc1ccc(Br)cc1)C(=O)O; Pro(4R-NH2) = N[C@H]1CN[C@H](C(=O)O)C1; Gly(cPent) = N[C@H](C(=O)O)C1CCCC1; X2 = O=C([C@H]1CCCN([*:1])C1)[*:2]; dDap(Me2) = CN(C)C[C@@H](N)C(=O)O; Hyp = O=C(O)[C@@H]1C[C@@H](O)CN1; NMeF = CN[C@@H](Cc1ccccc1)C(=O)O; tBuAla = CC(C)(C)C[C@H](N)C(=O)O; 3Thi = N[C@@H](Cc1ccsc1)C(=O)O; NHcycloheptyl = C1CCCC(N*)CC1; NMeL = CN[C@@H](CC(C)C)C(=O)O; Octanoyl = CCCCCCCC(=O)*; Api = NC1(C(=O)O)CCNCC1; tBu = CC(C)(C)*
# Target: T1, NPR-B (Homo sapiens, UniProt P20594)
# T1 construct: a functional assay using endogenously NPR-B expressing GTM-3 cells; endogenous in cells; host or cells: GTM-3 (human glaucoma trabecular meshwork cells)
# T1 sequence (P20594 23-1047): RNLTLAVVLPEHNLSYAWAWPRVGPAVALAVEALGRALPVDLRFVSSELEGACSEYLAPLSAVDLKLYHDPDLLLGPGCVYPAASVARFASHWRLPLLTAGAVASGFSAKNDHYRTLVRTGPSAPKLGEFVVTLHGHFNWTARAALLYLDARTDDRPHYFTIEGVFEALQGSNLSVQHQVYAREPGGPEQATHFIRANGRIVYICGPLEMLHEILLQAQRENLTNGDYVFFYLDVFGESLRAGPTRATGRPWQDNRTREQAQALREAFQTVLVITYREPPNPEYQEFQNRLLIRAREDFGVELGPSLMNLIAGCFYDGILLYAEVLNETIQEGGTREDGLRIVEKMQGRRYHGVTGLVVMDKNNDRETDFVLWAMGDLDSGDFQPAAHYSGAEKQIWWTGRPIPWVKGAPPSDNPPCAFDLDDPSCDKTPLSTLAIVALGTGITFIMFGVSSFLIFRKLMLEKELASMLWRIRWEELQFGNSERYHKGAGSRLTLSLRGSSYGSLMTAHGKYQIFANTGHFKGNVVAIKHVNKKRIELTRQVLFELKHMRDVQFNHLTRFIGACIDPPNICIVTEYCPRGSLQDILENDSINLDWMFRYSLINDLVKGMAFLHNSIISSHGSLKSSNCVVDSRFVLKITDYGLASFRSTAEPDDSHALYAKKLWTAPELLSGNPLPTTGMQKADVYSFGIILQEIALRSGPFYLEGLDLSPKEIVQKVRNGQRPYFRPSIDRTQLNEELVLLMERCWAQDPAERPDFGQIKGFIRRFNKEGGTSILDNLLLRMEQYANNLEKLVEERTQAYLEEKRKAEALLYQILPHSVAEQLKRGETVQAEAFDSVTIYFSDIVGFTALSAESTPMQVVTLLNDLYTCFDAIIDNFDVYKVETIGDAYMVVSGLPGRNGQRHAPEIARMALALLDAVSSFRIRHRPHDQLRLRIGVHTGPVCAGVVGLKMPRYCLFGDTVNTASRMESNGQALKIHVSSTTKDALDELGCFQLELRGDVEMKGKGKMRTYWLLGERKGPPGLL
# Assay: NPR-B induced production of cyclic GMP in human glaucoma trabecular meshwork cells (GTM-3)
# Format: cell-based
# Conditions: group by EC50 and Emax (CNP = 100%); Table 4; read-out: Activity (group), NPR-B activation assayed with GTM-3 cells
row,Compound,EC50
1,"CCCCCCCC(=O)N1CCC[C@H](C(=O)N[C@@H](Cc2ccccc2)C(=O)N[C@H](CC(C)C)C(=O)N[C@@H](CC(C)C)C(=O)N2C[C@H](O)C[C@H]2C(=O)N[C@@H](CC(C)(C)C)C(=O)N[C@@H](CC(=O)O)C(=O)N2CCC[C@H]2C(=O)NC2CCCCCC2)C1 [JAL-1595, Occ-Sni-Phe-leu-Leu-Hyp-Npg-Asp-Pro-Che] (Octanoyl-[X2]F[dL]L[Hyp][tBuAla]DP-NHcycloheptyl)",< 1000 nM
2,"CCCCCCCC(=O)N1CCC[C@H](C(=O)N(C)[C@@H](Cc2ccccc2)C(=O)N[C@H](CC(C)C)C(=O)N[C@@H](CC(C)C)C(=O)N2C[C@H](O)C[C@H]2C(=O)N(C)[C@@H](CC(C)C)C(=O)N[C@@H](CC(=O)O)C(=O)N2CCC[C@H]2C(=O)NC2CCCCCC2)C1 [JAL-1597, Occ-Sni-Nmf-leu-Leu-Hyp-Nml-Asp-Pro-Che] (Octanoyl-[X2][NMeF][dL]L[Hyp][NMeL]DP-NHcycloheptyl)",< 1000 nM
3,"CCCCCCCC(=O)N1CCC[C@H](C(=O)N[C@@H](Cc2ccc(Cl)c(Cl)c2)C(=O)N[C@H](CC(C)C)C(=O)N[C@@H](CC(C)C)C(=O)N2C[C@H](O)C[C@H]2C(=O)N(C)[C@@H](CC(C)C)C(=O)N[C@@H](CC(=O)O)C(=O)N2CCC[C@H]2C(=O)NC2CCCCCC2)C1 [JAL-1599, Occ-Sni-Eaa-leu-Leu-Hyp-Nml-Asp-Pro-Che] (Octanoyl-[X2][Phe(3,4-Cl2)][dL]L[Hyp][NMeL]DP-NHcycloheptyl)",< 1000 nM
4,"CCCCCCCC(=O)N1CCC[C@H](C(=O)N[C@@H](Cc2ccccc2)C(=O)NC2(C(=O)N[C@@H](CC(C)C)C(=O)N3C[C@H](N)C[C@H]3C(=O)N(C)[C@@H](CC(C)C)C(=O)N[C@@H](CC(=O)O)C(=O)N3CCC[C@H]3C(=O)NC3CCCCCC3)CCNCC2)C1 [JAL-1602, Occ-Sni-Phe-Apc-Leu-Tap-Nml-Asp-Pro-Che] (Octanoyl-[X2]F[Api]L[Pro(4R-NH2)][NMeL]DP-NHcycloheptyl)",< 1000 nM
5,"CCCCCCCC(=O)N1CCC[C@H](C(=O)N[C@@H](Cc2ccccc2)C(=O)N[C@H](CN(C)C)C(=O)N[C@@H](CC(C)C)C(=O)N2C[C@H](N)C[C@H]2C(=O)N(C)[C@@H](CC(C)C)C(=O)N[C@@H](CC(=O)O)C(=O)N2CCC[C@H]2C(=O)NC2CCCCCC2)C1 [JAL-1603, Occ-Sni-Phe-dap(Me2)-Leu-Tap-Nml-Asp-Pro-Che] (Octanoyl-[X2]F[dDap(Me2)]L[Pro(4R-NH2)][NMeL]DP-NHcycloheptyl)",< 1000 nM
6,"CCCCCCCC(=O)N1CCC[C@H](C(=O)N[C@@H](Cc2ccccc2)C(=O)N[C@H](CN(C)C)C(=O)N[C@@H](CC(C)C)C(=O)N2C[C@H](O)C[C@H]2C(=O)N(C)[C@@H](CC(C)C)C(=O)N[C@@H](CC(=O)O)C(=O)N2CCC[C@H]2C(=O)NC2CCCCCC2)C1 [JAL-1604, Occ-Sni-Phe-dap(Me2)-Leu-Hyp-Nml-Asp-Pro-Che] (Octanoyl-[X2]F[dDap(Me2)]L[Hyp][NMeL]DP-NHcycloheptyl)",< 1000 nM
7,"CC[C@H](C)[C@H](NC(=O)[C@H](CCCNC(=N)N)NC(=O)[C@H](CC(=O)O)NC(=O)[C@H](CC(C)C)N(C)C(=O)[C@@H]1C[C@@H](O)CN1C(=O)[C@H](CC(C)C)NC(=O)[C@@H](CC(C)C)NC(=O)[C@H](Cc1ccccc1)NC(=O)[C@H]1CCCN(C(=O)CCCc2ccccc2)C1)C(N)=O [JAL-1605, 1319-Sni-Phe-leu-Leu-Hyp-Nml-Asp-Arg-Ile-NH2] (HELM PEPTIDE1{[O=C(CCCc1ccccc1)[*:2]].[O=C([C@H]1CCCN([*:1])C1)[*:2]].F.[dL].L.[Hyp].[meL].D.R.I.[am]}$$$$V2.0)",< 1000 nM
8,"CC[C@H](C)[C@H](NC(=O)[C@H](CCCNC(=N)N)NC(=O)[C@H](CC(=O)O)NC(=O)[C@H](CC(C)C)N(C)C(=O)[C@@H]1C[C@@H](O)CN1C(=O)[C@H](CC(C)C)NC(=O)[C@@H](CC(C)C)NC(=O)[C@H](Cc1ccccc1)NC(=O)[C@H]1CCCN(C(=O)CCCCc2ccccc2)C1)C(N)=O [JAL-1606, 1320-Sni-Phe-leu-Leu-Hyp-Nml-Asp-Arg-Ile-NH2] (HELM PEPTIDE1{[O=C(CCCCc1ccccc1)[*:2]].[O=C([C@H]1CCCN([*:1])C1)[*:2]].F.[dL].L.[Hyp].[meL].D.R.I.[am]}$$$$V2.0)",< 1000 nM
9,"CCCCCCCC(=O)N1CCC[C@H](C(=O)N[C@@H](Cc2cccc(Cl)c2)C(=O)N[C@H](CC(C)C)C(=O)N[C@@H](CC(C)C)C(=O)N2C[C@H](O)C[C@H]2C(=O)N(C)[C@@H](CC(C)C)C(=O)N[C@@H](CC(=O)O)C(=O)N[C@@H](CCCNC(=N)N)C(=O)N[C@H](C(N)=O)[C@@H](C)CC)C1 [JAL-1618, Occ-Sni-Mcf-leu-Leu-Hyp-Nml-Asp-Arg-Ile-NH2] (Octanoyl-[X2][Phe(3-Cl)][dL]L[Hyp][NMeL]DRI-NH2)",< 1000 nM
10,"CCCCCCCC(=O)N1CCC[C@H](C(=O)N[C@@H](Cc2ccc(Br)cc2)C(=O)N[C@H](CC(C)C)C(=O)N[C@@H](CC(C)C)C(=O)N2C[C@H](O)C[C@H]2C(=O)N(C)[C@@H](CC(C)C)C(=O)N[C@@H](CC(=O)O)C(=O)N[C@@H](CCCNC(=N)N)C(=O)N[C@H](C(N)=O)[C@@H](C)CC)C1 [JAL-1619, Occ-Sni-Pbf-leu-Leu-Hyp-Nml-Asp-Arg-Ile-NH2] (Octanoyl-[X2][Phe(4-Br)][dL]L[Hyp][NMeL]DRI-NH2)",< 1000 nM
11,"CCCCCCCC(=O)N1CCC[C@H](C(=O)N[C@@H](Cc2ccsc2)C(=O)N[C@H](CC(C)C)C(=O)N[C@@H](CC(C)C)C(=O)N2C[C@H](O)C[C@H]2C(=O)N(C)[C@@H](CC(C)C)C(=O)N[C@@H](CC(=O)O)C(=O)N[C@@H](CCCNC(=N)N)C(=O)N[C@H](C(N)=O)[C@@H](C)CC)C1 [JAL-1620, Occ-Sni-Thk-leu-Leu-Hyp-Nml-Asp-Arg-Ile-NH2] (Octanoyl-[X2][3Thi][dL]L[Hyp][NMeL]DRI-NH2)",< 1000 nM
12,"CCCCCCCC(=O)N1CCC[C@H](C(=O)N[C@@H](Cc2cccc(C(F)(F)F)c2)C(=O)N[C@H](CC(C)C)C(=O)N[C@@H](CC(C)C)C(=O)N2C[C@H](O)C[C@H]2C(=O)N(C)[C@@H](CC(C)C)C(=O)N[C@@H](CC(=O)O)C(=O)N[C@@H](CCCNC(=N)N)C(=O)N[C@H](C(N)=O)[C@@H](C)CC)C1 [JAL-1621, Occ-Sni-Mtf-leu-Leu-Hyp-Nml-Asp-Arg-Ile-NH2] (Octanoyl-[X2][Phe(3-CF3)][dL]L[Hyp][NMeL]DRI-NH2)",< 1000 nM
13,"CCCCCCCC(=O)N1CCC[C@H](C(=O)N[C@@H](Cc2ccccc2)C(=O)N[C@H](CSC(C)(C)C)C(=O)N[C@@H](CC(C)C)C(=O)N2C[C@H](O)C[C@H]2C(=O)N(C)[C@@H](CC(C)C)C(=O)N[C@@H](CC(=O)O)C(=O)N[C@@H](CCCNC(=N)N)C(=O)N[C@H](C(N)=O)[C@@H](C)CC)C1 [JAL-1623, Occ-Sni-Phe-ctb-Leu-Hyp-Nml-Asp-Arg-Ile-NH2] (Octanoyl-[X2]F[dC](tBu)L[Hyp][NMeL]DRI-NH2)",< 1000 nM
14,"CCCCCCCC(=O)N1CCC[C@H](C(=O)N[C@@H](Cc2ccccc2)C(=O)N[C@H](CC(C)C)C(=O)N[C@@H](CCCC)C(=O)N2C[C@H](O)C[C@H]2C(=O)N(C)[C@@H](CC(C)C)C(=O)N[C@@H](CC(=O)O)C(=O)N[C@@H](CCCNC(=N)N)C(=O)N[C@H](C(N)=O)[C@@H](C)CC)C1 [JAL-1624, Occ-Sni-Phe-leu-Nle-Hyp-Nml-Asp-Arg-Ile-NH2] (HELM PEPTIDE1{[CCCCCCCC(=O)[*:2]].[O=C([C@H]1CCCN([*:1])C1)[*:2]].F.[dL].[Nle].[Hyp].[meL].D.R.I.[am]}$$$$V2.0)",< 1000 nM
15,"CCCCCCCC(=O)N1CCC[C@H](C(=O)N[C@@H](Cc2ccccc2)C(=O)N[C@H](CC(C)C)C(=O)N[C@@H](CC(C)C)C(=O)N2C[C@H](O)C[C@H]2C(=O)N[C@H](C(=O)N[C@@H](CC(=O)O)C(=O)N[C@@H](CCCNC(=N)N)C(=O)N[C@H](C(N)=O)[C@@H](C)CC)[C@@H](C)CC)C1 [JAL-1625, Occ-Sni-Phe-leu-Leu-Hyp-Ile-Asp-Arg-Ile-NH2] (HELM PEPTIDE1{[CCCCCCCC(=O)[*:2]].[O=C([C@H]1CCCN([*:1])C1)[*:2]].F.[dL].L.[Hyp].I.D.R.I.[am]}$$$$V2.0)",< 1000 nM
16,"CCCCCCCC(=O)N1CCC[C@H](C(=O)N[C@@H](Cc2ccccc2)C(=O)N[C@H](CC(C)C)C(=O)N[C@@H](CC(C)C)C(=O)N2C[C@H](O)C[C@H]2C(=O)N[C@H](C(=O)N[C@@H](CC(=O)O)C(=O)N[C@@H](CCCNC(=N)N)C(=O)N[C@H](C(N)=O)[C@@H](C)CC)C2CCCC2)C1 [JAL-1626, Occ-Sni-Phe-leu-Leu-Hyp-Cpg-Asp-Arg-Ile-NH2] (Octanoyl-[X2]F[dL]L[Hyp][Gly(cPent)]DRI-NH2)",< 1000 nM
